Values quoted from earlier work in patent US7288574B2, “Two-phase oxygenated solution and method of use” (priority 2001, dated 2007).

Conditions: equilibrium with air (pO2=0.21) at 77° F.

- solubility limit of oxygen in water: approximately 8.3 mg/l
SMILES: O=O [oxygen]
